Assay results reported in patent US20230128412A1, “METHODS FOR ENHANCING RECOMBINANT ADENO-[…] YIELD” (Ultragenyx Pharmaceutical Inc., priority 2020, published 2023).

How the values were obtained:
Format in all cases: cell-based
HeLa producer cells = experiment: Effect of niacinamide concentration on rAAV production, HeLa producer cell lines, 24 deep-well plate; conditions: for normalized volumetric rAAV titer: Clade E and F rAAV
Description: (§1) In this example, the effect of various concentrations of niacinamide ranging from 0.1 mM to 40 mM on rAAV production was tested in a variety HeLa producer cell lines. The experiment was run in a 24 deep-well plate culture system with a 3 mL working volume, a seeding density of 0.2×10^6 cells in cell culture production medium, and an Ad5 multiplicity of infection (MOI) of 200 vp/cell. […] The capsid serotypes included in this analysis were AAV8, AAV9, rh10, and hu37.

[1] = system: HeLa producer cell line (AAVrh10-FIX); experiment: Effect of vessel scale (24-DW vs 100 mL shake flask) with niacinamide on rAAV production; conditions: scale removed as a factor; all niacinamide concentrations
Description: In this example, the effect of scale using two common vessels (3 mL-deep well (“24-DW”) and 100 mL shake flask (“Flasks”)) with niacinamide on rAAV production was tested. The analysis was conducted using a HeLa producer cell line capable of producing a Clade E rAAV encoding a Factor IX transgene (AAVrh10-FIX). FIG. 3 depicts a bar graph showing rAAV titer (GC/mL) at varying niacinamide concentrations at the different scales. […] The scale and interaction factors were insignificant (p=0.3915 and p=0.1353 respectively).

[2] = system: HeLa clones (AAVrh10-FIX, AAV8-G6Pase, AAVhu37-FVIII); experiment: Effect of niacinamide on rAAV production with Clade E HeLa clones; conditions: between 1 mM and 5 mM niacinamide; all four clones
Description: as §1
Four different HeLa clones were tested using the conditions described in Example 1. FIG. 4A-D show the rAAV titer (GC/mL) per varying niacinamide concentrations for Clone 1 (AAVrh10-FIX) follow-up supernatant, clone 2 (AAV8-G6Pase) supernatant, Clone 3 (AAV8-G6Pase) wide range with no supplement, and Clone 4 (AAVhu37-FVIII) wide range no supplement suspension (i.e., Triton-lysed sample), respectively.

[3] = system: HeLa producer cell line clones (AAV9-ATP7B); experiment: Effect of niacinamide on rAAV production with Clade F HeLa clones, 2 L bioreactor; conditions: 3 mM niacinamide, both clones
Description: In this example, the effect of 3 mM niacinamide on two HeLa producer cell line clones expressing recombinant Clade F AAV encoding a truncated ATP7B transgene (AAV9-ATP7B) was examined in a 2 L bioreactor.

HEK293 cells (rAAV8-OTC) [4] = experiment: Effect of niacinamide concentration on rAAV production with HEK293 cells
Description: In this example, the effect of various concentrations of niacinamide ranging from 0.03 mM to 30 mM on rAAV production was tested with HEK293 cells. The experiment was run in 30 mL flasks using a transfection density of 1.3×10^6 to 2.0×10^6 cells/mL. The HEK293 cells used in this experiment were transfected with plasmids enabling the production of rAAV8 encoding an ornithine transcarbamylase (rAAV8-OTC).

HEK293 cells (rAAV8-OTC) [5] = experiment: Effect of additional compounds on rAAV production with HEK293 cells, 24 deep-well plates; conditions: for rAAV titers (summary statement): HEK293 cells
Description: In this example, the effect of compounds other than niacinamide on rAAV production in HEK293 cells was examined. The compounds analyzed in this example included niacin, methyl nicotinate, myo-inositol, pantothenic acid, pyridoxine, choline, thiamine, glucosamine, caffeine, n-acetyl glucosamine, and thymidine.
The experiment was run in 24 deep-well plates using the same cells as described in Example 5 under similar transfection and culture conditions. The concentrations of each compound tested were 1 mM, 3 mM, and 9 mM. […] None of the other compounds tested provided a significant benefit to rAAV titer at any of the three concentrations tested.

[6] = niacinamide between 1 mM and 10 mM

NC(=O)c1cccnc1 [niacinamide]
niacinamide concentration of predicted maximum rAAV titer (3rd-order polynomial fit) (HeLa producer cells; fit of normalized titer data points, FIG. 2): 5 mM
normalized volumetric rAAV titer (HeLa producer cells; niacinamide 0.1 mM to 10 mM, relative to no niacinamide): Increases in rAAV titer
normalized volumetric rAAV titer (GC/mL), 3rd-order polynomial fit (HeLa producer cells; [6]): Significant increases in rAAV titer
normalized volumetric rAAV titer (HeLa producer cells; [6]): most significant increases
rAAV titer, Dunnett's Test [1]: significance at all concentrations
rAAV titer (GC/mL) [2]: titer increase
rAAV titer [3]: significant titer increase
rAAV titer (HEK293 cells (rAAV8-OTC) [4]; 0.3 mM niacinamide, 30 mL flasks): increases in titer
rAAV titer (HEK293 cells (rAAV8-OTC) [4]; 3 mM niacinamide, 30 mL flasks): increases in titer
rAAV titer (HEK293 cells (rAAV8-OTC) [4]; repeat run at 2 L bioreactor scale (data not shown)): increase in titer
level of benefit to rAAV titer compared with the other compounds (HEK293 cells (rAAV8-OTC) [5]; niacinamide versus the 11 compounds of Example 6): substantially and surprisingly superior to the other 11 compounds examined

COC(=O)c1cccnc1 [methyl nicotinate]
increase in titer (HEK293 cells (rAAV8-OTC) [5]; 3 mM compound): 42%
rAAV titers (summary statement) (HEK293 cells (rAAV8-OTC) [5]): can boost rAAV titers

OC1C(O)C(O)C(O)C(O)C1O (centres unmarked) [myo-inositol]
increase in titer (HEK293 cells (rAAV8-OTC) [5]; 3 mM compound): approximately 20%
increase in titer (HEK293 cells (rAAV8-OTC) [5]; 9 mM compound): approximately 20%
rAAV titers (summary statement) (HEK293 cells (rAAV8-OTC) [5]): can boost rAAV titers

O=C(O)c1cccnc1 [niacin]
increase in titer (HEK293 cells (rAAV8-OTC) [5]; 1 mM compound): 20%
rAAV titers (summary statement) (HEK293 cells (rAAV8-OTC) [5]): can boost rAAV titers

C[N+](C)(C)CCO [choline]
increase in titer (HEK293 cells (rAAV8-OTC) [5]; 3 mM compound): 65%
rAAV titers (summary statement) (HEK293 cells (rAAV8-OTC) [5]): can boost rAAV titers
